One assay concerns rd10 mice. The assay is described as follows: Rod photoreceptor preservation in rd10 mice (photoreceptor rows in ONL, immunofluorescence). It is filed as in vivo, mouse. As for the experimental part:
(§1) All inhibitors were diluted in 0.9% bacteriostatic sodium chloride (saline).
(§2) Retinas were fixed in 4% paraformaldehyde overnight at 4° C., washed in PBS, incubated in 5% sucrose/PBS for 30 min and then cryopreserved in 20% sucrose/PBS overnight at 4° C. Retinas were embedded in 2:1 mix of 20% sucrose and OCT (Sakura Finetek Torrance, CA) and stored at −80° C. Blocks with tissue samples were sectioned to 7-10 μm on a Cryostat Microtome HM550 (Thermo Fisher Scientific) and stored at −20° C. Antigen retrieval was performed by incubating the slides in 10 mM sodium citrate pH 6 for 30 min at 80° C. Double labeling immunohistochemistry was performed using fluorescent Alexa Fluor-conjugated secondary antibodies diluted 1:800 (Invitrogen, Carlsbad, California). Primary antibodies were diluted as follow: anti-H3K4me2 1:600, anti-H3K9me2 1:600, anti-RHO 1:50, anti-OPN1SW 1:400, anti-GFAP 1:1000, anti-IBA1 1:450 (AifI gene). […] The acquisition parameters were maintained constant for each set of experiments. Fluorescence intensity was assessed using ImageJ software (Bethesda, MD).

The test system of another assay is rd1 mice. As to conditions: previous studies; cited from earlier work.
Another assay deals with RP. The note with it: previous studies, cited from earlier work; for protective effect on RP: non-selective HDAC inhibitors.
Another assay deals with RGC. As to conditions: previous study; cited from earlier work.
Another assay concerns rod nuclei. The note with it: WT + TCP, PN24. The procedure: as §2
The number of heterochromatin foci in rod nuclei was calculated to estimate the level of rod photoreceptor maturation in retinas of animals treated with LSD1 inhibitors (FIG. 10B).

A further assay relates to rd10 mice retina. The assay is described as follows: RT-PCR retinal gene expression, rd10 mice. It is filed as in vivo, mouse. The procedure: (§3) Whole retinas were isolated from animals by removing the sclera and most of the retinal pigmented epithelium (RPE) layer under PBS. The right eye retinas from each animal were taken for RNA extraction, cDNA preparation and RT-PCR. Immediately after isolation, tissue was flash frozen in liquid nitrogen and stored at −80° C. Left eye retinas from each animal were subjected to fixation, cryopreservation, sectioning, and immunofluorescence staining. RNA extraction and purification followed the manufacturer's protocol from RNeasy Mini Kit and RNA shredder (Qiagen). […] Primers purchased from Integrated DNA Technologies (IDT). For quantitative real-time PCR we used 2× iQ-SYBR Green PCR supermix from Bio-Rad. Samples in triplicate were run on an iQ5 Multicolor Real Time PCR Detection System (Bio-Rad). The relative expression level for each gene was calculated by the 2-ΔΔCt method and normalized to GAPDH.

The test system of the next assay is H3K4me2, H3K9me2. The assay is described as follows: Anti-H3K4me2 and anti-H3K9me2 Western blot of WT retina. Type of assay: in vivo, mouse. The note with it: WT mice treated PN9 till PN24. As for the experimental part: Both retinas from one animal were flash frozen together in liquid nitrogen and stored at −80° C. Samples for SDS-PAGE were prepared by resuspended retinas in 50 μl PBS. Laemmli sample buffer was added, samples were boiled for 10 min, resolved on Criterion TGX Precast Gel AnyKD (Bio-Rad), transferred to nitrocellulose membrane, and immunoblotted with antibodies anti-H3K9me2 or anti-H3K4me2 diluted 1:5000; anti-ACTB diluted 1:10000; anti-PDE6B (1:500). Secondary goat anti-rabbit/mouse HRP (Jackson Immuno-Research Laboratory, West Grove, PA) was diluted 1:5000. An ECL western blot detection system (Thermo Fisher Scientific) was used to visualize the bound of the primary antibody.

The next assay concerns WT mice. The note with it: TCP PN9 till PN24. The procedure:
as §1, §2

The test system of the next assay is WT mice retina. Put plainly: RT-PCR retinal gene expression, WT mice. Type of assay: in vivo, mouse. The procedure: as §3
In a further assay the test system is rd10. The note with it: TCP PN9 till PN24. The procedure:
Retinas were fixed in 4% paraformaldehyde overnight at 4° C., washed in PBS, incubated in 5% sucrose/PBS for 30 min and then cryopreserved in 20% sucrose/PBS overnight at 4° C. Retinas were embedded in 2:1 mix of 20% sucrose and OCT (Sakura Finetek Torrance, CA) and stored at −80° C. Blocks with tissue samples were sectioned to 7-10 μm on a Cryostat Microtome HM550 (Thermo Fisher Scientific) and stored at −20° C. TUNEL assay was carried out using the In situ Cell death detection kit, Fluorescein from Roche (Germany) according to manufacturer's instruction.

Another assay has as its system GFAP, IBA1. The assay is described as follows: Immunofluorescence labeling of GFAP and IBA1 in retina sections. It is filed as in vivo, mouse. As to conditions: rd10, treated PN9 till PN24; levels remained above WT. As for the experimental part: Fluorescence intensity was assessed using ImageJ software (Bethesda, MD).

As to `C/C=C1\NC(=O)[C@H]2CSSCC/C=C/[C@H](CC(=O)N[C@H](C(C)C)C(=O)N2)OC(=O)[C@H](C(C)C)NC1=O` [romidepsin], in the assay on rd10 mice (romidepsin 0.2 mg/kg i.p. daily PN9 till PN24, saline control 2-3 rows), the “rows of photoreceptor remaining in the ONL at PN24” value is given as 8 rows.
On to `Nc1nccc2c1ncn2[C@@H]1C=C(CO)[C@@H](O)[C@H]1O` [DZNep, 3-deazaneplanocin A], for which, in the assay with rd1 mice, the “retinal degeneration / photoreceptor loss in rd1 mouse” value is on record as “delays in retinal degeneration”.
As to `CC(/C=C/C(=O)NO)=C\[C@@H](C)C(=O)c1ccc(N(C)C)cc1` [TSA], the “protective effect on RP” value in the assay on RP is “some protective effect”.
As to `Nc1cc(F)ccc1NC(=O)/C=C/c1cnn(C/C=C/c2ccccc2)c1` [RGFP966], the RGC death entry in the assay with RGC is “protected against RGC death”.
As to `CCCC(=O)[O-].[Na+]` [sodium butyrate], in the assay on RP, the “protective effect on RP” value is “some protective effect”.
As for `CCCC(CCC)C(=O)O` [VPA], in the assay on RP, the “protective effect on RP” value is “some protective effect” and the “outcome as therapeutic agent for retinal degeneration” value is reported as “mixed results”.
Take `N[C@@H]1C[C@H]1c1ccccc1` (relative stereo) [TCP, trans-2-Phenylcyclopropylamine]: the “rod nuclei with 3 foci” value with rod nuclei (WT saline 2%) is 7%. For the same molecule, the “rod nuclei with two foci” value with rod nuclei (WT saline 43%) is listed as 51%. In the assay with rod nuclei (WT saline 55%), the “rod nuclei with one focus” value was found to be 42%. Besides, in the assay on rd10 mice retina (treated PN9 till PN24, assayed PN24, vs saline), the “expression of rod photoreceptor genes relative to GAPDH” value was “increased expression of almost all rod genes”. In addition, the “expression of cone genes Thrb or Gnat2” value with rd10 mice retina (treated PN9 till PN24 vs saline) was “slightly up-regulated”. Moreover, the “rows of photoreceptors remaining in the ONL at PN24” value in the assay with rd10 mice (TCP 10 mg/kg i.p. daily PN9 till PN24) turned out to be 7 rows. In the assay on H3K4me2, H3K9me2, the “global levels of H3K4me2” value is on record as “did not change significantly” and the “global levels of H3K9me2” value is recorded as “No changes”. Besides, in the assay with WT mice, the ONL thickness result is given as “significantly increased” and the “number of rows of rods” value was “did not change”. In the assay on WT mice retina (WT mice treated PN9 till PN24), the “expression of rod photoreceptor genes” value is reported as “no changes”. The “expression of transcription factors of retina development and maturation” value in the assay with WT mice retina (WT retinas, treated PN9 till PN24) is reported as “slightly increased expression”. Also, in the assay on rd10, the “dying cells by TUNEL staining vs control” value is reported as “no significant difference”. In addition, the “IBA1 labeling (microglia)” value with GFAP, IBA1 is recorded as “decreased”.

(Values after patent US20230310542A1, “EPIGENETIC MODIFIERS TO TREAT RETINAL DEGENERATIONS” (priority 2022, published 2023).)
